Among the data in patent publication US10166218B2, “3-(1H-indol-2-yl)-1H-pyrazolo[3,4-C]pyridines and therapeutic uses thereof” (Samumed, LLC, priority 2015, dated 2019) are EC50 and inhibition values, retold here.

Usually EC50 stands for the concentration that produces a half-maximal response.

The test system of experiment [1] is primary human fibroblasts derived from IPF patients (LL29 cells) treated with TGF-β1; α-smooth muscle actin (αSMA). As to the kind of experiment: Inhibition of the fibrotic process: αSMA staining in TGF-β1 treated primary human fibroblasts from IPF patients (LL29 cells). The class given is cell-based. As to conditions: Fibroblast, 96 h, TGF-β1 20 ng/mL, 4 days; for EC50: % cells positive for αSMA; for inhibition at 10 µM: αSMA, read-out: percent inhibition at 10 μM (given for EC50 of >10 μM). In a few lines: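 EC50 values come from non-linear fits of the αSMA-positive percentage among SYTOX-excluded live cells, normalized to TGF-β1 plus DMSO controls, or appear as % inhibition at 10 μM when above 10 μM. Fibrosis was induced in IPF-derived LL29 fibroblasts by 20 ng/mL TGF-β1 over 4 days, with 1:2 compound dilutions from 10 μM.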

For another experiment, the system named is IL-6 (THP-1 cells). Nature of the experiment: Inhibition of IL-6 in LPS-stimulated THP-1 human monocyte cells (HTRF). To be noted: for EC50: inhibition of IL-6 in LPS-stimulated THP-1 cells, HTRF, 10-point dose-response starting from 10 μM; for inhibition at 10 µM: IL-6 assay in LPS-stimulated THP-1 cells, given only where EC50 >10 μM, meaning not given (top concentration 10 μM), read-out: percentage given in parentheses after EC50 >10. The class given is cell-based. The essentials: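 Readout is the 665/620 nm HTRF ratio for secreted IL-6, normalized to DMSO wells, with EC50 from a variable-slope four-parameter fit, or % inhibition at 10 μM when above 10 μM. Cells (1% FBS, 24 h beforehand) got compound for 2 h, then LPS 500 ng/mL for 22 h at 37° C; top dose 10 μM, 0.1% DMSO.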
For orientation: In TR-FRET formats the signal depends on donor and acceptor labels being close together.

Regarding `Nc1cncc(-c2cc3c(-c4cc5c(-c6ccccn6)cccc5[nH]4)n[nH]c3cn2)c1` [Compound 143, 5-(3-(4-(Pyridin-2-yl)-1H-indol-2-yl)-1H-pyrazolo[3,4-c]pyridin-5-yl) pyridin-3-amine], the EC50 in experiment [1] was found to be 0.098 µM; in the experiment on IL-6 (THP-1 cells), 0.549 µM.
In the case of `Cc1ccncc1-c1cc2c(-c3cc4c(-c5ccccn5)cccc4[nH]3)n[nH]c2cn1` [Compound 145, 5-(4-Methylpyridin-3-yl)-3-(4-(pyridin-2-yl)-1H-indol-2-yl)-1H-pyrazolo [3,4-c]pyridine], the results for the 50% effective concentration (EC50) (in experiment [1]; with IL-6 (THP-1 cells)) were 0.223 µM and 2.83 µM, respectively.
Taken in the same sequence, the figures for `CN(C)Cc1cncc(-c2cc3c(-c4cc5c(-c6ccccn6)cccc5[nH]4)n[nH]c3cn2)c1` [Compound 153, N,N-Dimethyl-1-(5-(3-(4-(pyridin-2-yl)-1H-indol-2-yl)-1H-pyrazolo[3,4-c]pyridin-5-yl)pyridin-3-yl)methanamine] were 0.461 µM and 0.989 µM.
On the same counts, the results for `CCCCC(=O)Nc1cncc(-c2cc3c(-c4cc5c(-c6ccccn6)cccc5[nH]4)n[nH]c3cn2)c1` [Compound 159, N-(5-(3-(4-(Pyridin-2-yl)-1H-indol-2-yl)-1H-pyrazolo[3,4-c]pyridin-5-yl)pyridin-3-yl)pentanamide] are 0.269 µM and 1.56 µM.
On to `O=C(Nc1cncc(-c2cc3c(-c4cc5c(N6CCCCC6)cccc5[nH]4)n[nH]c3cn2)c1)C1CC1` [Compound 188, N-(5-(3-(4-(Piperidin-1-yl)-1H-indol-2-yl)-1H-pyrazolo[3,4-c]pyridin-5-yl)pyridin-3-yl)cyclopropanecarboxamide], for which the EC50 in experiment [1] is 1.37 µM; with IL-6 (THP-1 cells) it was 4.96 µM.
`FC1(F)CCN(Cc2cncc(-c3cc4c(-c5cc6c(N7CCCCC7)cccc6[nH]5)n[nH]c4cn3)c2)C1` [Compound 194, 5-(5-((3,3-Difluoropyrrolidin-1-yl)methyl)pyridin-3-yl)-3-(4-(piperidin-1-yl)-1H-indol-2-yl)-1H-pyrazolo[3,4-c]pyridine] returned a half-maximal effective concentration (EC50) in experiment [1] of 0.694 µM. In addition, in the experiment on IL-6 (THP-1 cells), the inhibition at 10 µM was determined as 0% and the EC50 is greater than 10 µM.
Consider `CC(C)C(=O)Nc1cncc(-c2cc3c(-c4cc5c(N6CCN(C)CC6)cccc5[nH]4)n[nH]c3cn2)c1` [Compound 233], for which the concentration for a half-maximal effect (EC50) in experiment [1] is greater than 10 µM; with IL-6 (THP-1 cells), 0.753 µM. Also, the inhibition at 10 µM in experiment [1] worked out at 74.5%.
On to `CN1CCN(c2cccc3[nH]c(-c4n[nH]c5cnc(-c6cncc(NC(=O)C7CCC7)c6)cc45)cc23)CC1` [Compound 245], for which the EC50 is 4.61 µM in experiment [1] and 0.967 µM in the experiment with IL-6 (THP-1 cells).
Taken in the same sequence, the figures for `O=C(Nc1cncc(-c2cc3c(-c4cc5ccccc5[nH]4)n[nH]c3cn2)c1)c1ccccc1` [Compound 263, N-(5-(3-(1H-Indol-2-yl)-1H-pyrazolo[3,4-c]pyridin-5-yl)pyridin-3-yl) benzamide] were 0.065 µM and 1.19 µM.
Taken in the same sequence, the figures for `c1ccc2[nH]c(-c3n[nH]c4cnc(-c5cncc(CN6CCCC6)c5)cc34)cc2c1` [Compound 266, 3-(1H-Indol-2-yl)-5-(5-(pyrrolidin-1-ylmethyl)pyridin-3-yl)-1H-pyrazolo [3,4-c]pyridine] were 0.143 µM and 0.424 µM.
Regarding `CC(C)(C)CC(=O)Nc1cncc(-c2cc3c(-c4cc5ccccc5[nH]4)n[nH]c3cn2)c1` [Compound 268, N-(5-(3-(1H-Indol-2-yl)-1H-pyrazolo[3,4-c]pyridin-5-yl)pyridin-3-yl)-3,3-dimethylbutanamide], the midpoint of the response in experiment [1], the EC50, lay at 9.98 µM. For the same molecule, in the experiment with IL-6 (THP-1 cells), the inhibition at 10 µM was found to be 25.1% and the EC50 was greater than 10 µM.
With `O=C(Nc1cncc(-c2cc3c(-c4cc5ccccc5[nH]4)n[nH]c3cn2)c1)C1CCCCC1` [Compound 275, N-(5-(3-(1H-Indol-2-yl)-1H-pyrazolo[3,4-c]pyridin-5-yl)pyridin-3-yl) cyclohexanecarboxamide], the EC50 amounted to 3.27 µM in experiment [1] and 0.092 µM with IL-6 (THP-1 cells).
Taken in the same sequence, the figures for `c1cc(-c2ccoc2)c2cc(-c3n[nH]c4cnc(-c5cncc(CN6CCCCC6)c5)cc34)[nH]c2c1` [Compound 323, 3-(4-(Furan-3-yl)-1H-indol-2-yl)-5-(5-(piperidin-1-ylmethyl)pyridin-3-yl)-1H-pyrazolo[3,4-c]pyridine] were 0.261 µM and 3.49 µM.
On the same counts, the results for `CN(C)CCNc1cc(F)cc(-c2cccc3[nH]c(-c4n[nH]c5cnc(-c6cncc(N)c6)cc45)cc23)c1` [Compound 451, N^1-(3-(2-(5-(5-Aminopyridin-3-yl)-1H-pyrazolo[3,4-c]pyridin-3-yl)-1H-indol-4-yl)-5-fluorophenyl)-N^2,N^2-dimethylethane-1,2-diamine] are 0.046 µM and 0.091 µM.
In the case of `CCNCc1cncc(-c2cc3c(-c4cc5c(-c6cc(F)cc(NCCN(C)C)c6)cccc5[nH]4)n[nH]c3cn2)c1` [Compound 454, N^1-(3-(2-(5-(5-((Ethylamino)methyl)pyridin-3-yl)-1H-pyrazolo[3,4-c]pyridin-3-yl)-1H-indol-4-yl)-5-fluorophenyl)-N^2,N^2-dimethylethane-1,2-diamine], the 50% effective concentration (EC50) in experiment [1] was determined as 0.583 µM; in the experiment with IL-6 (THP-1 cells) it was 0.856 µM.
Taken in the same sequence, the figures for `CN(C)CCNc1cc(F)cc(-c2cccc3[nH]c(-c4n[nH]c5cnc(-c6cncc(NC(=O)C(C)(C)C)c6)cc45)cc23)c1` [Compound 456, N-(5-(3-(4-(3-((2-(Dimethylamino)ethyl)amino)-5-fluorophenyl)-1H-indol-2-yl)-1H-pyrazolo[3,4-c]pyridin-5-yl)pyridin-3-yl)pivalamide] were 0.444 µM and 0.286 µM.
Taken in the same sequence, the figures for `CN(C)CCNc1cc(F)cc(-c2cccc3[nH]c(-c4n[nH]c5cnc(-c6cncc(CN(C)C)c6)cc45)cc23)c1` [Compound 461, N^1-(3-(2-(5-(5-((Dimethylamino)methyl)pyridin-3-yl)-1H-pyrazolo[3,4-c]pyridin-3-yl)-1H-indol-4-yl)-5-fluorophenyl)-N^2,N^2-dimethylethane-1,2-diamine] were 1.18 µM and 0.657 µM.
On the same counts, the results for `CN(C)CCNc1cc(F)cc(-c2cccc3[nH]c(-c4n[nH]c5cnc(-c6ccccn6)cc45)cc23)c1` [Compound 476, N^1-(3-Fluoro-5-(2-(5-(pyridin-2-yl)-1H-pyrazolo[3,4-c]pyridin-3-yl)-1H-indol-4-yl)phenyl)-N^2,N^2-dimethylethane-1,2-diamine] are 0.582 µM and 1.56 µM.
As to `Cc1ccncc1-c1cc2c(-c3cc4c(-c5cc(F)cc(CNS(C)(=O)=O)c5)cccc4[nH]3)n[nH]c2cn1` [Compound 481, N-(3-Fluoro-5-(2-(5-(4-methylpyridin-3-yl)-1H-pyrazolo[3,4-c]pyridin-3-yl)-1H-indol-4-yl)benzyl)methanesulfonamide], the EC50 was 0.712 µM in experiment [1] and 1.18 µM in the experiment with IL-6 (THP-1 cells).
Consider `CS(=O)(=O)NCc1cc(F)cc(-c2cccc3[nH]c(-c4n[nH]c5cnc(-c6cncc(NC(=O)c7ccccc7)c6)cc45)cc23)c1` [Compound 487, N-(5-(3-(4-(3-Fluoro-5-(methylsulfonamidomethyl)phenyl)-1H-indol-2-yl)-1H-pyrazolo[3,4-c]pyridin-5-yl)pyridin-3-yl)benzamide], for which the EC50 was 5.01 µM in experiment [1] and greater than 10 µM with IL-6 (THP-1 cells). Further, the inhibition at 10 µM in the experiment with IL-6 (THP-1 cells) was determined as 28.8%.
Turning to `CS(=O)(=O)NCc1cc(F)cc(-c2cccc3[nH]c(-c4n[nH]c5cnc(-c6cncnc6)cc45)cc23)c1` [Compound 503, N-(3-Fluoro-5-(2-(5-(pyrimidin-5-yl)-1H-pyrazolo[3,4-c]pyridin-3-yl)-1H-indol-4-yl)benzyl)methanesulfonamide], in experiment [1], the EC50 is greater than 10 µM and the inhibition at 10 µM was determined as 0%. In the experiment with IL-6 (THP-1 cells), this molecule returned an EC50 of 2.98 µM.
On the same counts, the results for `Nc1cncc(-c2cc3c(-c4cc5ncccc5[nH]4)n[nH]c3cn2)c1` [Compound 507, 5-(3-(1H-Pyrrolo[3,2-b]pyridin-2-yl)-1H-pyrazolo[3,4-c]pyridin-5-yl) pyridin-3-amine] are greater than 10 µM, 0% and 0.404 µM.
On the same counts, the results for `c1cnc2cc(-c3n[nH]c4cnc(-c5cncc(CNCC6CCCC6)c5)cc34)[nH]c2c1` [Compound 529, 1-(5-(3-(1H-Pyrrolo[3,2-b]pyridin-2-yl)-1H-pyrazolo[3,4-c]pyridin-5-yl)pyridin-3-yl)-N-(cyclopentylmethyl)methanamine] are greater than 10 µM, 0% and 0.999 µM.
As to `Fc1ccccc1-c1cccc2[nH]c(-c3n[nH]c4cnc(-c5cn[nH]c5)cc34)cc12` [Compound 567, 3-(4-(2-Fluorophenyl)-1H-indol-2-yl)-5-(1H-pyrazol-4-yl)-1H-pyrazolo[3,4-c]pyridine], the EC50 in experiment [1] was determined as 0.027 µM; with IL-6 (THP-1 cells) it was 0.438 µM.
Taken in the same sequence, the figures for `CN(C)CCOc1cncc(-c2cc3c(-c4cc5c(-c6cccnc6)cccc5[nH]4)n[nH]c3cn2)c1` [Compound 591, N,N-Dimethyl-2-((5-(3-(4-(pyridin-3-yl)-1H-indol-2-yl)-1H-pyrazolo[3,4-c]pyridin-5-yl)pyridin-3-yl)oxy)ethan-1-amine] were 2.19 µM and 1.46 µM.
